Reference: PMC8765781, “A platform of assays for the discovery of anti-Zika small-molecules with activity in a 3D-bioprinted outer-blood-retina model” (PLoS ONE, 2022)
Read-outs that look alike come from different tables or passages of the source.

Legend:
[1] = system: wild-type ZIKV (Ugandan MR766 strain) in Vero cells; experiment: ZIKV cytopathic effect (CPE) inhibition qHTS assay, CellTiter-Glo readout; assay type: cell-based, Zika virus
[2] = system: ZIKV-RLuc (Cambodian strain FSS13025); experiment: microbe, parasite or virus in culture; assay type: cell-based, Zika virus
[3] = Zika virus, Vero, read-out: Log AC50 (M) (converted)

SMILES: O=C1NC2CCCCN2C12CCN(CCCN1c3ccccc3CCc3ccc(Cl)cc31)CC2 (stereo not shown) [NCGC00183853-01]
- AC50 ([1]; Zika virus, Vero, from Hill fit of the response curve, 50% of maximum activity response, 194 cherry-picked compounds, protocol name not given, read-out: AC50): 65.1 µM
- AC50 ([1]; Zika virus, Vero, potency in log units (Molar) from Hill fit of the response curve, 194 cherry-picked compounds, protocol name not given, read-out: Log AC50 (converted)): 65.1 µM
- CC-v2 (curve class classification of the dose response curve) ([1]; curve class v2 (Inglese et al. 2006)): -3
- Efficacy ([1]; difference between neutral response and maximum compound response): -47.567
- CC-v2 (curve class classification v2 of the dose response curve) [2]: -2.1
- Efficacy (difference between neutral response and maximum compound response) [2]: -99.983
- Max Resp (difference between neutral response and compound response for highest compound concentration) [2]: -99.289
- AC50 ([2]; Zika virus, Vero): 2.61e-05 M
- AC50 [2, 3]: 2.61e-05 M
- AC50 (Vero cells): 26.1 µM
- Log AC50 (M) (Vero cells): -4.5827 M

SMILES: CC1=C(CO)C(=O)O[C@@H]([C@@H](C)[C@H]2CC[C@H]3[C@@H]4C[C@H]5O[C@]56[C@@H](O)C=CC(=O)[C@]6(C)[C@H]4CC[C@]23C)C1 [NCGC00180796-02]
- Curve class [1]: -3
- Efficacy [1]: -63.347
- AC50 ([1]; Zika virus, Vero): 35.5 µM
- AC50 ([1]; Zika virus, Vero, read-out: Log AC50 (converted)): 35.5 µM
- Emax ([1]; Zika virus, Vero, read-out: Max response): -65.4%
- CC-v2 (curve class classification v2 of the dose response curve) [2]: -2.1
- Efficacy (difference between neutral response and maximum compound response) [2]: -108.248
- Max Resp (difference between neutral response and compound response for highest compound concentration) [2]: -100.116
- AC50 ([2]; Zika virus, Vero): 1.02e-05 M
- AC50 [2, 3]: 1.02e-05 M
- AC50 (Vero cells): 10.2 µM
- Log AC50 (M) (Vero cells): -4.9908 M

SMILES: O=C(Nc1ccc([N+](=O)[O-])cc1Cl)c1cc(Cl)ccc1O [NCGC00015735-12]
- AC50 [2]: 1.04e-06 M
- CC-v2 (curve class classification v2 of the dose response curve) [2]: -1.1
- Efficacy (difference between neutral response and maximum compound response) [2]: -94.574
- Log AC50 (M) [2]: -5.9827
- Max Resp (difference between neutral response and compound response for highest compound concentration) [2]: -99.55
- AC50 (Vero cells): 1.04 µM
- Log AC50 (M) (Vero cells): -5.9827 M

SMILES: CN1CCN(CCCN2c3ccccc3Sc3ccc(C(F)(F)F)cc32)CC1 [NCGC00013226-15]
- CC-v2 (curve class classification v2 of the dose response curve) [2]: -2.1
- Efficacy (difference between neutral response and maximum compound response) [2]: -93.82
- Max Resp (difference between neutral response and compound response for highest compound concentration) [2]: -95.429
- AC50 ([2]; Zika virus, Vero): 2.33e-05 M
- AC50 [2, 3]: 2.33e-05 M
- AC50 (Vero cells): 23.3 µM
- Log AC50 (M) (Vero cells): -4.6327 M

SMILES: C1=C/COCc2cc(ccc2OCCN2CCCC2)Nc2nccc(n2)-c2cccc(c2)OCC/1 [NCGC00249346-02]
- CC-v2 (curve class classification v2 of the dose response curve) [2]: -1.1
- Efficacy (difference between neutral response and maximum compound response) [2]: -91.692
- Max Resp (difference between neutral response and compound response for highest compound concentration) [2]: -99.088
- AC50 ([2]; Zika virus, Vero): 1.17e-06 M
- AC50 [2, 3]: 1.17e-06 M
- AC50 (Vero cells): 1.17 µM
- Log AC50 (M) (Vero cells): -5.9327 M

SMILES: C[C@@H]1C[C@H]2C3CCC4=CC(=O)C=C[C@@]4(C)[C@@]3(Cl)[C@@H](O)CC2(C)[C@@]1(OC(=O)c1ccco1)C(=O)CCl (stereo partly shown) [NCGC00164596-01]
- CC-v2 (curve class classification v2 of the dose response curve) [2]: -1.1
- Efficacy (difference between neutral response and maximum compound response) [2]: -109.905
- Max Resp (difference between neutral response and compound response for highest compound concentration) [2]: -100.212
- AC50 ([2]; Zika virus, Vero): 1.04e-05 M
- AC50 [2, 3]: 1.04e-05 M
- AC50 (Vero cells): 10.4 µM
- Log AC50 (M) (Vero cells): -4.9827 M

SMILES: CCCCN(CCCC)CCC(O)c1cc2c(Cl)cc(Cl)cc2c2cc(C(F)(F)F)ccc12 (stereo not shown) [NCGC00179250-04]
- CC-v2 (curve class classification v2 of the dose response curve) [2]: -2.2
- Efficacy (difference between neutral response and maximum compound response) [2]: -95.793
- Max Resp (difference between neutral response and compound response for highest compound concentration) [2]: -79.925
- AC50 ([2]; Zika virus, Vero): 2.93e-05 M
- AC50 [2, 3]: 2.93e-05 M
- AC50 (Vero cells): 29.3 µM
- Log AC50 (M) (Vero cells): -4.5327 M

SMILES: O=C1NC(=O)/C(=C/c2ccc3nccc(-c4ccncc4)c3c2)S1 [NCGC00346509-02]
- CC-v2 (curve class classification v2 of the dose response curve) [2]: -1.1
- Efficacy (difference between neutral response and maximum compound response) [2]: -91.751
- Max Resp (difference between neutral response and compound response for highest compound concentration) [2]: -97.47
- AC50 ([2]; Zika virus, Vero): 1.47e-06 M
- AC50 [2, 3]: 1.47e-06 M
- AC50 (Vero cells): 1.47 µM
- Log AC50 (M) (Vero cells): -5.8327 M

SMILES: N=c1c2c(-c3ccccc3)c(-c3ccccc3)n(Cc3ccccc3)c2ncn1C1CCC(O)CC1 (stereo not shown) [NCGC00247785-05]
- CC-v2 (curve class classification v2 of the dose response curve) [2]: -1.1
- Efficacy (difference between neutral response and maximum compound response) [2]: -97.244
- Max Resp (difference between neutral response and compound response for highest compound concentration) [2]: -99.645
- AC50 ([2]; Zika virus, Vero): 4.96e-06 M
- AC50 [2, 3]: 4.96e-06 M
- AC50 (Vero cells): 4.96 µM
- Log AC50 (M) (Vero cells): -5.3045 M

SMILES: CCC(=C/[C@H](C)C/C=C/C(C)=C/[C@@H](C)C(=O)[C@@H](C)[C@H](O)[C@@H](C)C/C(C)=C/C(=O)O)/C=C/[C@@H]1OC(=O)C=C[C@@H]1C [NCGC00162440-02]
- CC-v2 (curve class classification v2 of the dose response curve) [2]: -1.2
- Efficacy (difference between neutral response and maximum compound response) [2]: -71.611
- Max Resp (difference between neutral response and compound response for highest compound concentration) [2]: -66.361
- AC50 ([2]; Zika virus, Vero): 4.76e-09 M
- AC50 [2, 3]: 4.76e-09 M
- AC50 (Vero cells): 0.00476 µM
- Log AC50 (M) (Vero cells): -8.3224 M

SMILES: O=c1[nH]c2ccccc2n1C1CCN(CCCC(c2ccc(F)cc2)c2ccc(F)cc2)CC1 [NCGC00015802-18]
- CC-v2 (curve class classification v2 of the dose response curve) [2]: -2.1
- Efficacy (difference between neutral response and maximum compound response) [2]: -98.365
- Max Resp (difference between neutral response and compound response for highest compound concentration) [2]: -96.477
- AC50 ([2]; Zika virus, Vero): 2.08e-05 M
- AC50 [2, 3]: 2.08e-05 M
- AC50 (Vero cells): 20.8 µM
- Log AC50 (M) (Vero cells): -4.6827 M

SMILES: C=C1[C@@H](O)[C@]2(O)OC[C@]34C2[C@]2(C)C(C[C@H]3OC(=O)[C@H](O)[C@@]14O)C(C)=CC(=O)[C@H]2O (stereo partly shown) [NCGC00347491-02]
- CC-v2 (curve class classification v2 of the dose response curve) [2]: -2.2
- Efficacy (difference between neutral response and maximum compound response) [2]: -33.078
- Max Resp (difference between neutral response and compound response for highest compound concentration) [2]: -33.995
- AC50 ([2]; Zika virus, Vero): 7.23e-06 M
- AC50 [2, 3]: 7.23e-06 M
- AC50 (Vero cells): 7.23 µM
- Log AC50 (M) (Vero cells): -5.1408 M

SMILES: Cc1ccc(C(=O)Nc2ccc(CN3CCN(C)CC3)c(C(F)(F)F)c2)cc1C#Cc1cnc2cccnn12 [NCGC00263152-01]
- CC-v2 (curve class classification v2 of the dose response curve) [2]: -1.1
- Efficacy (difference between neutral response and maximum compound response) [2]: -88.579
- Max Resp (difference between neutral response and compound response for highest compound concentration) [2]: -98.949
- AC50 ([2]; Zika virus, Vero): 1.85e-06 M
- AC50 [2, 3]: 1.85e-06 M
- AC50 (Vero cells): 1.85 µM
- Log AC50 (M) (Vero cells): -5.7327 M

SMILES: CC(C)c1cc(-c2n[nH]c(=O)n2-c2ccc3c(ccn3C)c2)c(O)cc1O [NCGC00346678-01]
- CC-v2 (curve class classification v2 of the dose response curve) [2]: -2.2
- Efficacy (difference between neutral response and maximum compound response) [2]: -44.79
- Max Resp (difference between neutral response and compound response for highest compound concentration) [2]: -44.962
- AC50 ([2]; Zika virus, Vero): 8.27e-06 M
- AC50 [2, 3]: 8.27e-06 M
- AC50 (Vero cells): 8.27 µM
- Log AC50 (M) (Vero cells): -5.0827 M

SMILES: COc1ccc(CCN(C)CCCC(C#N)(c2ccc(OC)c(OC)c2)C(C)C)cc1OC (stereo not shown) [NCGC00016083-13]
- AC50 ([2]; Zika virus, Vero): 1.51e-05 M
- AC50 [2, 3]: 1.51e-05 M
- AC50 (Vero cells): 15.1 µM
- Log AC50 (M) (Vero cells): -4.8199 M

SMILES: CC(C)C(=O)O[C@H]1[C@@H]2[C@H](C)C(=O)O[C@@H]2C[C@@H](C)[C@@H]2C=CC(=O)[C@]21C [NCGC00347562-02]
- CC-v2 (curve class classification v2 of the dose response curve) [2]: -3
- Efficacy (difference between neutral response and maximum compound response) [2]: -106.49
- Max Resp (difference between neutral response and compound response for highest compound concentration) [2]: -96.985
- AC50 ([2]; Zika virus, Vero): 2.28e-05 M
- AC50 [2, 3]: 2.28e-05 M
- AC50 (Vero cells): 22.8 µM
- Log AC50 (M) (Vero cells): -4.6425 M

SMILES: C=C(C)C1Cc2c(cc(O)c3c2OC2COc4cc(OC)c(OC)cc4C2(O)C3=O)O1 (stereo not shown) [NCGC00347649-02]
- CC-v2 (curve class classification v2 of the dose response curve) [2]: -1.1
- Efficacy (difference between neutral response and maximum compound response) [2]: -91.85
- Max Resp (difference between neutral response and compound response for highest compound concentration) [2]: -97.372
- AC50 ([2]; Zika virus, Vero): 9.28e-08 M
- AC50 [2, 3]: 9.27e-08 M
- AC50 (Vero cells): 0.0927 µM
